Results from patent US20260055065A1, “PYRIDAZINONE COMPOUNDS WHICH MODULATE MUTANT PROTEINS FOR TREATING RESPIRATORY DISEASES” (The Hospital for Sick Children, priority 2022, published 2026).
“Also recorded” adds a separate entry of the source.

Assays:
Format in all cases: cell-based
F508del-CFTR = target: T1, F508del-CFTR (Homo sapiens, UniProt P13569, DEL508-508); test: Dose response, potentiation of forskolin-activated F508del-CFTR chloride channel activity in CFBE41o- cells (fluorescence membrane potential assay); conditions: low temperature (27 degrees Celsius) correction, read-out: potency in potentiating cyclic AMP dependent F508del-CFTR chloride channel activity
T1 construct: F508del-CFTR was endogenously expressed in CFBE41o^− cells; endogenous in cells; host or cells: CFBE41o-
T1 sequence (P13569 with tags, fused parts or gaps DEL508-508): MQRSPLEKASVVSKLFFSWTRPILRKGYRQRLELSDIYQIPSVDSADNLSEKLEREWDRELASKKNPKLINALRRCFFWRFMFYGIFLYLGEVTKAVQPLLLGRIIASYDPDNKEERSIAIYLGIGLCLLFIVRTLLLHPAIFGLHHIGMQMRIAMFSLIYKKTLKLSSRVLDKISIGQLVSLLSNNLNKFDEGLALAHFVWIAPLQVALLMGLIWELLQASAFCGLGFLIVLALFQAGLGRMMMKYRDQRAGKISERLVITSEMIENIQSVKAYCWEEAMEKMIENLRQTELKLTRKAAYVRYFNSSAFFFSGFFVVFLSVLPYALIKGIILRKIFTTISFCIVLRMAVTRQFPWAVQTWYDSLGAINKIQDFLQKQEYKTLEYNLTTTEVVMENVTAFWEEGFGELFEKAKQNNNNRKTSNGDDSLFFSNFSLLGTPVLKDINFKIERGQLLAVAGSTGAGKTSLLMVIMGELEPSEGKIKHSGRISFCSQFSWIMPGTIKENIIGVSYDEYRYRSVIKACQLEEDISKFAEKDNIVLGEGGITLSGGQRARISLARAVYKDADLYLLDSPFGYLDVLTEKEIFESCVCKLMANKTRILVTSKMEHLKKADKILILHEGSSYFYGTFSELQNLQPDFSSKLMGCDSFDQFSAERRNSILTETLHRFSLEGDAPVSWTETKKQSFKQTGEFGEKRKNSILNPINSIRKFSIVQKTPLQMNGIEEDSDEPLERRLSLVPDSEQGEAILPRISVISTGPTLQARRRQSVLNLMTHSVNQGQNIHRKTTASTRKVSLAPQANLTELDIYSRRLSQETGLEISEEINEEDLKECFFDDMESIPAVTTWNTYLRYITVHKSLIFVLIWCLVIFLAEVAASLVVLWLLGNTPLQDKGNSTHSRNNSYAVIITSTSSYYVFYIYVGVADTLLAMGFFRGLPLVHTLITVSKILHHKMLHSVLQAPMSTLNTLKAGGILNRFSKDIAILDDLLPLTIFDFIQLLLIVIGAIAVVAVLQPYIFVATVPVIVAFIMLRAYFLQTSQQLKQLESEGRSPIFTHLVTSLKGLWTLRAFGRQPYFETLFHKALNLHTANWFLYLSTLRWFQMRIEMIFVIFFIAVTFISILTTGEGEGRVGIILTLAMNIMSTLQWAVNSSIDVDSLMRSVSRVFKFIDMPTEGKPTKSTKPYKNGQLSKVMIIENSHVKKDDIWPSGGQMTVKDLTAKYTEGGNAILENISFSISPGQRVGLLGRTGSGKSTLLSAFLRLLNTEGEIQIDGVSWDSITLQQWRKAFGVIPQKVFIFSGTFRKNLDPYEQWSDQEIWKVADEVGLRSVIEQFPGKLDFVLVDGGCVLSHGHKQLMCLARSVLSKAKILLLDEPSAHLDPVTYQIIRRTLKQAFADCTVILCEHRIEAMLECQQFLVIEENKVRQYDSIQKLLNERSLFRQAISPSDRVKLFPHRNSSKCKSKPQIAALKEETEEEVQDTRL
Experimental: In these studies, F508del-CFTR was endogenously expressed in CFBE41o^− cells and it's trafficking defect corrected by low temperature (27 degrees Celsius) incubation. The fold increase in cyclic AMP dependent F508del-CFTR mediated chloride channel activity induced by potentiator treatment was determined using the fluorescence-based, membrane potential difference assay previously described.

[1] = tested on: primary differentiated human bronchial epithelial cultures; test: Bead tracking assay of mucociliary movement, primary bronchial epithelial cultures exposed to cigarette smoke extract; conditions: for mucostasis / bead velocity in CSE-treated cultures: CSE 2%, compound 1 μM for 24 hours, forskolin 10 μM
Experimental: Compound 11 was tested in an in-vitro model of COPD. In this model, primary differentiated human bronchial epithelial cultures were exposed to cigarette smoke extract (4,5). Exposure to cigarette smoke extract (CSE) led to mucostasis and slowed mucociliary movement (FIG. 1(A) and (B)). […] Changes in mucociliary movement were determined as in our previous publication (7), i.e., by tracking the speed of fluorescent beads added to the surface of the airway cultures. The relative rescue effect of Compound 11 compared favourably relative to the competitor, the FDA approved CFTR potentiator marketed as Ivacaftor (VX-770).
Mature bronchial epithelial cultures, seeded on 24-well transwell inserts, derived from non-smoker donors of variable ages were received from the University of Iowa and cultured at air-liquid interface (ALI) using UltraG medium. A total of 6 inserts per donor were cultured, and all inserts from a single donor were selected to receive chronic drug and toxin treatment. Ahead of chronic treatment, cultures were subject to mucomist to reduce the volume and viscosity of the mucous layer ahead of imaging. Cultures were first washed twice with 200 uL HBSS (Wisent) applied apically to the transwell, each wash for 10 minutes at 37 degrees and 5% CO2. Cells were then incubated with 10 μM N-acetyl-cysteine (source?) dissolved in HBSS (Wisent) for 30 minutes, followed by a final HBSS wash as described previously. The toxin treatment consisted of either cigarette smoke extract (CSE) prepared in 100% DMSO (University of Alabama at Birmingham), dissolved at a concentration of 2% (v/v) in UltraG medium, with an equivalent concentration of DMSO alone serving as a control. The chronic drug treatment was co-applied with the toxin treatment, which included either VX-770 (Vertex) or SK-POT, aka Compound 11 (both prepared in 100% DMSO) dissolved in UltraG medium at a final concentration of 1 μm. There were a total of 6 chronic treatments, with each of the 6 inserts per donor receiving a different chronic treatment. Bronchial epithelia were incubated with the chronic treatment, applied apically, for 24 hours at 37 degrees C. and 5% CO2. After 24 hours, green fluorescent microspheres (brand?) dissolved in HBSS at a concentration of 0.05% (v/v) were applied apically; cultures were incubated with the microspheres for 45 minutes. The toxin and potentiator treatments were carried forth into the microsphere solution.
Inserts were then imaged at room temperature by epifluorescence microscopy (Zeiss or Olympus). The basic replicate of the assay consists of a 5-second video captured in the green channel and 40-60 frames per second; Z-position was adjusted ahead of each video to ensure beads in the airway surface liquid stratum immediately above the cilia were being captured. 5 videos were captured per insert/conditions, representing the centre and 4 corners of the insert. 2 sets of 5 videos were captured per insert/condition: one at baseline, and one 20 minutes following CFTR stimulation by forskolin at a concentration of 10 μM. Inserts were incubated at room temperature after forskolin addition.
Videos were captured using Volocity software and exported as one TIF file per frame. Frames were then re-compiled into complete videos using Arivis 4D software. Using an algorithm as previously described in Wu et al. 2017, microspheres were highlighted by adjusting two parameters: fluorescence intensity and diameter. […]

Wt-CFTR = Wt-CFTR (Homo sapiens, UniProt P13569); test: Ussing chamber short circuit current, primary human bronchial epithelial cultures; conditions: 1 μM, after forskolin 100 nM
Sequence of Wt-CFTR (P13569 whole entry): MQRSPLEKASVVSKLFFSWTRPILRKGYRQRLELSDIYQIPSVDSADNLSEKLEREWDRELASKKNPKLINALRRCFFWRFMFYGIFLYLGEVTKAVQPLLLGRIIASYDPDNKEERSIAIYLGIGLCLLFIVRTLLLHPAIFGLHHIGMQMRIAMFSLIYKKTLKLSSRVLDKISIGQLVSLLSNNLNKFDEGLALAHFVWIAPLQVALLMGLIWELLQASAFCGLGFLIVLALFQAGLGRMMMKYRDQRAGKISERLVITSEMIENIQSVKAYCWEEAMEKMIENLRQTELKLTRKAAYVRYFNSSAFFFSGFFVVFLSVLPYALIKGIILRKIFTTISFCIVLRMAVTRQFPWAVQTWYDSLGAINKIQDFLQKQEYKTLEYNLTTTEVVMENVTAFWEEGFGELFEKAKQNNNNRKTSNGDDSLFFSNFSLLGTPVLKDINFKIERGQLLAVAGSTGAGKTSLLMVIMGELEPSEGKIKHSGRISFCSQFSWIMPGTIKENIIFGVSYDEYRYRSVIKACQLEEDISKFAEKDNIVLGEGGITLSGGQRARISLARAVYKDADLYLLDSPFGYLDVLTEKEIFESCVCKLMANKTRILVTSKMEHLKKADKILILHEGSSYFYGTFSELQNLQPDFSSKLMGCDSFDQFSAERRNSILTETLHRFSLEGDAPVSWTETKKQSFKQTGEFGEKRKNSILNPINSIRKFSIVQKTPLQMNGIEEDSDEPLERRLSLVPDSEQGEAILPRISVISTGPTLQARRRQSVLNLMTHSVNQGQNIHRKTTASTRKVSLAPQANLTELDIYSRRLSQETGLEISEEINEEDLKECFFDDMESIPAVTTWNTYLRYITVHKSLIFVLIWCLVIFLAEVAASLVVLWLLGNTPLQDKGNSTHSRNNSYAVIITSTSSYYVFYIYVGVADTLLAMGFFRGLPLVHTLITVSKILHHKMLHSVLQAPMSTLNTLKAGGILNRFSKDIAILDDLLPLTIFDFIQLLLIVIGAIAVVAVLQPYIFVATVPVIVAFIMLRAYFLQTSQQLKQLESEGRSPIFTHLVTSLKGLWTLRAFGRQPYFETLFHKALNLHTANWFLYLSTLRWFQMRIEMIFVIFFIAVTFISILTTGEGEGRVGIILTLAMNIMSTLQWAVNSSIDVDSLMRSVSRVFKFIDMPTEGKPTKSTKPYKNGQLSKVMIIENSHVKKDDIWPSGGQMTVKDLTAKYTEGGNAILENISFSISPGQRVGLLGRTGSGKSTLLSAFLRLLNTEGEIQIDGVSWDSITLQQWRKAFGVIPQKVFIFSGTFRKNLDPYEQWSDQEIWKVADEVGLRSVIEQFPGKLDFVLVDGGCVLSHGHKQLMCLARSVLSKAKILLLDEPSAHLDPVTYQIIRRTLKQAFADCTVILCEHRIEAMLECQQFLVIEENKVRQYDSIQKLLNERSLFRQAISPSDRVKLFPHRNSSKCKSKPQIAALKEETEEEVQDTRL
Experimental: The impact of SK-POT (compound 11) in potentiating Wt-CFTR mediated transepithelial chloride conduction in primary human bronchial epithelial cultures was then tested.

CFTR = target: T2, CFTR (Mustela putorius furo, UniProt Q07E16); test: Ussing chamber, primary bronchial epithelial cultures from adult ferret trachea; conditions: 1 μM, after forskolin 100 nM
T2 construct: primary bronchial epithelial cultures prepared from adult ferret trachea; from tissue; host or cells: primary bronchial epithelial cultures from adult ferret trachea
T2 sequence (Q07E16 whole entry): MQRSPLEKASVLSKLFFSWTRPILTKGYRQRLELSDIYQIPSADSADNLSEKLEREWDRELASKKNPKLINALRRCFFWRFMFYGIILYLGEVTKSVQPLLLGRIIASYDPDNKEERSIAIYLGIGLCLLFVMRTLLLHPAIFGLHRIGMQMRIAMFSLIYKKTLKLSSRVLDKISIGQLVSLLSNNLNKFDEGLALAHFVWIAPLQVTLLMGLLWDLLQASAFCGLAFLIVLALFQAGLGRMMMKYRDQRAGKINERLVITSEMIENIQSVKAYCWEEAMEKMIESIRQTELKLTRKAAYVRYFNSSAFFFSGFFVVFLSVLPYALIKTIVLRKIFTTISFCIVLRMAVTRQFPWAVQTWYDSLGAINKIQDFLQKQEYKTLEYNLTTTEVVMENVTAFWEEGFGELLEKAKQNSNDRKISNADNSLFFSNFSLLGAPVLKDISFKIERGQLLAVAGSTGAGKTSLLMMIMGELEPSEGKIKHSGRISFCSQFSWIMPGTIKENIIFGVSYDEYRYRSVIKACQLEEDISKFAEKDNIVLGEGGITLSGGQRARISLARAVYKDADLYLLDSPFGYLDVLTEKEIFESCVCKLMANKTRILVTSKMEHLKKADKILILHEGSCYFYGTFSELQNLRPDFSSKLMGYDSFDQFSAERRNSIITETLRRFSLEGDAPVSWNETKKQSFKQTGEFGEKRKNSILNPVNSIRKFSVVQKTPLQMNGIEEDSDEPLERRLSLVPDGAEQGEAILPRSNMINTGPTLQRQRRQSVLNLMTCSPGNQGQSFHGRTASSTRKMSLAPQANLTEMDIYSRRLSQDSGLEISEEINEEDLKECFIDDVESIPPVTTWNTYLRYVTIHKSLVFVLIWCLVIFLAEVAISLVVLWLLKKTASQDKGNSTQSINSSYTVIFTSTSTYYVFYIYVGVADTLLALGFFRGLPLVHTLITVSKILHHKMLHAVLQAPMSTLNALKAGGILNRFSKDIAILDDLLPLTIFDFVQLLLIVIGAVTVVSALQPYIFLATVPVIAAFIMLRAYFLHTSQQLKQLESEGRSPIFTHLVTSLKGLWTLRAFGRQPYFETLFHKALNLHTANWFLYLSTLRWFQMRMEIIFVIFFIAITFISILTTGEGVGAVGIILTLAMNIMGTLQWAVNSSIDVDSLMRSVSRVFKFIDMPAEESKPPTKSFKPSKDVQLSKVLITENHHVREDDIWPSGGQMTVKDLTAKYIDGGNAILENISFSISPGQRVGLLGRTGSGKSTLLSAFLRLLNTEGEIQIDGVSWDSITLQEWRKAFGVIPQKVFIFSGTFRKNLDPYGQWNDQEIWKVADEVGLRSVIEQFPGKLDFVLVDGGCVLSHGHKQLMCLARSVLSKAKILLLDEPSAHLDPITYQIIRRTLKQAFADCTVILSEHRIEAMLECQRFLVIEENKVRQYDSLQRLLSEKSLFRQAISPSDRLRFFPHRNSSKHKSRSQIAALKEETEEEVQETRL
Experimental: Student's “t” test was conducted.

- EC50 (F508del-CFTR): 5 nM
- forskolin activated short circuit currents mediated by Wt-CFTR (Wt-CFTR): potentiated
SMILES: CC(C)(C)c1ccc(-n2nc(-c3ccc(F)cc3)c(N3CCCCC3)c(N)c2=O)cc1O [Compound 11, 4-amino-2-(4-(tert-butyl)-3-hydroxyphenyl)-6-(4-fluorophenyl)-5-(piperidin-1-yl)pyridazin-3(2H)-one]
- mucostasis / bead velocity in CSE-treated cultures [1]: prevented the mucostasis induced by cigarette smoke extract; also recorded: rescued to control values
- mucostasis / bead velocity in CSE-treated cultures ([1]; listed as SK-POT): significant increase in bead velocity
- bead velocity under control conditions ([1]; no CSE, compound added with vehicle for 24 hours): Neither VX-770 nor Compound 11 had any impact on bead velocity
- CFTR channel function in ferret bronchial tissue (CFTR): effective in augmenting CFTR channel function
